Experimental data as given in US20250057813A1, “APOPTOSIS RELATED PROTEIN IN THE TGF-BETA SIGNALING PATHWAY (ARTS) MIMETIC COMPOUNDS, COMPOSITIONS, METHODS AND USES THEREOF IN INDUCTION OF APOPTOSIS” (Carmel-Haifa University Economic Corporation Ltd., priority 2022, published 2025).

Experiments:
[1] = target: T1, p53 ubiquitylation by XIAP (Homo sapiens, UniProt P98170); assay: In vitro ubiquitylation assay, recombinant GST-XIAP and p53; type: biochemical; settings: 20 and 40 μM B3, 1 hour at 37C
T1 construct: host or cells: bacteria (GST-XIAP)
T1 sequence (P98170 whole entry): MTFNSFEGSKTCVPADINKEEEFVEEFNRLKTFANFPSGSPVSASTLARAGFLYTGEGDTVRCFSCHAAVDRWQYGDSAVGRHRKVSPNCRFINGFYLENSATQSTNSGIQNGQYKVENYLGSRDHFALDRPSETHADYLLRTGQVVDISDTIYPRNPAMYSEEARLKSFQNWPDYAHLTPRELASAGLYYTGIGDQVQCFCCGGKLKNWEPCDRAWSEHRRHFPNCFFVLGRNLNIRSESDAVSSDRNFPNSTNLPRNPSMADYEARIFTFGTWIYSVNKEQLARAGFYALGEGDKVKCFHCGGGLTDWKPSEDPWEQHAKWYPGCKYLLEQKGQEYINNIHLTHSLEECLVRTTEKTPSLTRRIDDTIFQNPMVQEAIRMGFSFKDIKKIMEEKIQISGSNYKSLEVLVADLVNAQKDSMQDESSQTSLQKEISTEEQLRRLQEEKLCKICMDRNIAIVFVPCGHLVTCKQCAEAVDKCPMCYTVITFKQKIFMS
Description: Bacterially expressed His-ARTS was purified using fast protein liquid chromatography (FPLC), and bacterially expressed GST-XIAP was purified using glutathione beads. P53 recombinant protein was purchased from R&D (cat #SP-450). Recombinant p53 and GST-XIAP were incubated. E1, UbcH5b, ubiquitin (Ub), and the appropriate E3 in conjugation buffer (20 mM Tris-Cl [pH 7.6], 100 mM KCl, 5 mM MgCl2, and 1 mM DTT) containing 2 mM ATP at 37C for 1 hour.

[2] = tested on: WT MEFs and Sept4/ARTS KO MEFs cells; assay: Western blot of WT MEFs and Sept4/ARTS KO MEFs; type: cell-based, mouse; settings: 20 or 40 μM, 24 hours
Description: (§1) Cells were lysed in whole-cell extract buffer [25 mM HEPES, pH 7.7, […], 1.5 mM MgCl2, 0.2 mM EDTA, 0.1% Triton X-100, 100 μg/ml phenylmethylsulfonyl fluoride (PMSF) and protease inhibitor cocktail (Roche, 1:100 dilution)] and placed on ice for 30 min (vortexing once after 15 min). After 30 minutes, the samples were centrifuged at 13,000×g for 10 minutes at 4° C. The supernatants containing total protein were measured for protein concentration using Bio-Rad Protein Assay Dye Reagent Concentrate Kit. 40 to […] was separated by sodium dodecyl sulfate-polyacrylamide gel electrophoresis (SDS-PAGE) (12% or 7.5%), followed by transfer to a nitrocellulose membrane. The membranes were blocked with 5% (w/v) non-fat dried skimmed milk powder in PBS supplemented with 0.05% Tween-20 (PBS-T) for 1 h at RT. Next, primary antibodies were added at 4° C. overnight or for 2 h at room temperature. Membranes were then incubated with secondary antibody for 1 h at RT and washed three times for 15 min each with PBS-T. Western Bright ECL (Advansta) was added to the membrane for 30-60 s and analyzed using Image Quant LAS-4000 (GE Healthcare Life Sciences) and Image Quant LAS-4000 software (GE Healthcare Life Sciences).

[3] = target: T2, interaction between ARTS and Bcl2 (Homo sapiens, UniProt P10415); assay: BiFC assay between ARTS and Bcl-2; type: cell-based; settings: 20 μM
T2 construct: expressed in transfected cells; host or cells: A-375 or HeLa wt cells (the legend names both)
T2 sequence (P10415 whole entry): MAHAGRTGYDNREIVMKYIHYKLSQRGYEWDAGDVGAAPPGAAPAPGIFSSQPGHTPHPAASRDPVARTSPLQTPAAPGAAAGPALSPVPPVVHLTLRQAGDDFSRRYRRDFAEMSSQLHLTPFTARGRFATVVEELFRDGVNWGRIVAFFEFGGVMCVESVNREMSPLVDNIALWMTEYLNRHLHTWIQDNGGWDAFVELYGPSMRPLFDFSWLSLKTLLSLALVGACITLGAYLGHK
From the text: The split-Venus BiFC system was used to evaluate close proximity indicating possible direct binding between pairs of proteins. The proteins were fused either to the N-terminal part of the Venus-YFP (yellow fluorescence protein) (VN) or the C-terminal part (VC). All Venus fragments were fused to the C-terminal sequences of these proteins. The Jun and Fos pair was used as a positive control (P.C.), and the Jun and FosdeltaZIP pair was used as a negative control (N.C.). A vector encoding dsRed was used as a transfection efficiency marker. Cells were seeded in 12 well plates overnight. Cells were then transfected with (Bcl-2-VC, ARTS-VN, XIAP-VN and XIAP-VC) for 24-36 hours. Cells were then treated with apoptotic inducing reagents for 24 hrs.

[4] = target: BCL-2 (Homo sapiens, UniProt P10415); assay: MST binding assay; settings: binding curve, dose response
BCL-2, sequence (P10415 whole entry): as above
Description: Microscale thermophoresis (MST) binding assays were performed by CreLux, a WuXi AppTech company in Germany, using recombinant ARTS, XIAP, Bcl-2 and cIAP1 proteins. Specifically, for performing experiments with untagged XIAP, a fluorescent label (NT650) was covalently attached to the protein (Maleimide coupling). The labelling was performed in a buffer containing 50 mM HEPES pH 7.0, 150 mM NaCl and 0.005% Tween-20.

[5] = tested on: A375 human melanoma cells; assay: SDS PAGE and Western blot analysis of A375 cells; type: cell-based
Description: (§2) The cells were lysed in WCE (whole-cell extract) buffer [25 mM Hepes, pH 7.7, 0.3M NaCl, 1.5 mM MgCl2, 0.2 mM EDTA, 0.1% Triton X-100, 100[μg/ml PMSF and protease inhibitor cocktail (Roche, 1:100 dilution)]. 100 μg of total cell protein, measured with the Bio-Rad Protein Assay kit, were separated by SDS-PAGE (12%) followed by transfer for 2 h on to a nitrocellulose membrane. The membrane was blocked with 5% (w/v) non-fat dried skimmed milk powder in PBS supplemented with 0.05% Tween20 (PBS-T) for 1 hour at room temperature (R.T). Membrane was then probed with primary antibody at 4° C. overnight. Next, the membrane was incubated with the appropriate HRP-conjugated secondary antibody, for 1 hour at R.T. and washed 15 min ×3 with PBS-T. WesternBright ECL (Advansta) was added to the membrane for 2 min and analyzed using ImageQuant LAS-4000 analyzer (GE Healthcare Life Sciences) & “ImageQuant LAS-4000” software (GE Healthcare Life Sciences). Densitometry analysis was performed using ImageQuant total lab 7 (GE Healthcare Life Sciences), image analysis software.
as §1

[6] = tested on: HeLa cells; assay: Western blot of HeLa cells exposed to B3; type: cell-based; settings: 30 μM, 2-24 hrs
Description: as §2

[7] = tested on: CCRF-CEM (acute lymphoblastic leukemia) cell line; assay: Western blot analysis of CCRF-CEM; type: cell-based; settings: B3 alone, 24 hrs
Description: as §2

p53 Ubiquitylation by XIAP [1]: dose-dependent inhibition | binding of ARTS to Bcl-2 ([3]; 3 hours): increase | binding of ARTS to Bcl-2 ([3]; 24 hours): no effect | direct binding to Bcl-2 [4]: binds with high affinity
Compound: Cn1ccnc1C(=O)c1ccc(NC(=O)C(=O)N[C@H](CO)Cc2ccccc2)cc1 [B3, (S)-N1-(1-hydroxy-3-phenylpropan-2-yl)-N2-(4-(1-methyl-1H-imidazole-2-carbonyl)phenyl)oxalamide]
XIAP levels [2]: downregulates | p53 levels [2]: upregulate | Bcl-2 levels ([5]; 20 μM, 24 hrs): clearly reduced | XIAP levels ([5]; 20 μM, 24 hrs): clearly reduced | cleavage of Caspase 3 ([5]; 20 μM, 24 hrs): increased | cleavage of Caspase 9 ([5]; 20 μM, 24 hrs): increased | cleavage of PARP ([5]; 20 μM, 24 hrs): increased | MDM2 levels ([5]; 20, 30, 40 μM B3, 24 hours): reduction | XIAP levels ([5]; 20, 30, 40 μM B3, 24 hours): reduction | cPARP or caspase3 ([5]; 20, 30, 40 μM B3, 24 hours): elevation | p53 levels ([5]; 20, 30, 40 μM B3, 24 hours): elevation | ARTS levels ([5]; B3 in combined treatment with ABT-199, 24 hrs): downregulated | Bcl-2 levels ([5]; six hours of B3 treatment): decreased | anti-apoptotic markers [6]: reduction | induction of apoptosis [7]: sufficient to induce apoptosis
